Assay [1] concerns the target T1, CCK2 receptor (Cavia porcellus, UniProt H0VZC5).
T1 construct: strips of muscle were dissected and suspended in isolated tissue organ baths; from tissue; host or cells: guinea-pig gastric corpeal muscle strips
T1 sequence (H0VZC5 1-426): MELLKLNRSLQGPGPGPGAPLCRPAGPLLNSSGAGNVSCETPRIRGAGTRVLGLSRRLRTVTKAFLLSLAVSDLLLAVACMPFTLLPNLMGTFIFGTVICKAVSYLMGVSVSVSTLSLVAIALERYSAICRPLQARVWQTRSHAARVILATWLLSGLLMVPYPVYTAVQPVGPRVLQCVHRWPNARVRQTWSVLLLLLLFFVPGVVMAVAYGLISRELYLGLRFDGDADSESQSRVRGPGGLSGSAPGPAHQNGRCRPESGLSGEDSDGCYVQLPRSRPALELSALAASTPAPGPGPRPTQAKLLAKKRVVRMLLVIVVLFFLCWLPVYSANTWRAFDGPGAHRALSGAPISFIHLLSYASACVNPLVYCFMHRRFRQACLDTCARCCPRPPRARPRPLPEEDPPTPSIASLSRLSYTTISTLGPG
The assay can be described thus: Guinea-Pig Gastric Corpeal Muscle Assay (isolated muscle strip, pentagastrin-induced contraction). Format: cell-based. The settings on record: CCK1 receptors blocked. On the procedure: Guinea-Pig Gastric Corpeal Muscle Assay
CCK2 receptor-mediated muscle contraction was measured in an isolated muscle-strip assay of guinea-pig gastric corpeal muscle according to the methods described by Roberts et al. (S. P. Roberts, E. A. Harper, G. F. Watt, V. P. Gerskowitch, R. A. Hull, N. P. Shankley, and J. W. Black, Br. J. Pharmacol., 1996, 118(7):1779-1789). In brief, strips of muscle were dissected and suspended in isolated tissue organ baths for isotonic muscle contraction recording. The baths, containing Krebs-Henseleit solution, were maintained at 24° C. and gassed continuously with 95% O2 and 5% CO2. CCK1 receptors known to be present in this assay were blocked using a selective concentration of a suitable CCK1 receptor antagonist (e.g. 2-NAP). The effectiveness of the test compounds was assessed by measuring their effect on contractile concentration-response curves obtained using a well-characterized surrogate for the hormone gastrin (pentagastrin).

Assay [2] deals with T2, CCK2 receptor (Homo sapiens, UniProt P32239).
T2 construct: Membranes were prepared from the HEKZFP cells after induction; endogenous in cells
T2 sequence (P32239 1-447): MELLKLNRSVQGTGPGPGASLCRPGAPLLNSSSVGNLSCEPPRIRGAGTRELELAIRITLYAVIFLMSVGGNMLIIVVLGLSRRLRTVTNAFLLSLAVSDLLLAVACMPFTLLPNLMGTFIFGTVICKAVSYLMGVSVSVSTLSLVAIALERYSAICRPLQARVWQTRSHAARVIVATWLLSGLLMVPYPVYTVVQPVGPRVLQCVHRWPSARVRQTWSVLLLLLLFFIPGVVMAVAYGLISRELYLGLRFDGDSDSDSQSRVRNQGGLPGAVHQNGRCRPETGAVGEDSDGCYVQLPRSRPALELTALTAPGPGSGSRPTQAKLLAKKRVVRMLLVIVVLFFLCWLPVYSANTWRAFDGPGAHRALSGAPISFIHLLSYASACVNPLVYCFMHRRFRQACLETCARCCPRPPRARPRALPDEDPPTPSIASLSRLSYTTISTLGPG
The assay can be described thus: Binding Assay: competition with [125I]-BH-CCK-8S in HEKZFP cell membranes. The settings on record: 60 min at 21±3° C., Cheng-Prusoff. As for the experimental part:
Zinc Finger Proteins (ZFP) specific for the CCK2R gene were identified by Sangamo Biosciences. The ZFP domain was fused with the herpes simplex virus VP16 activation domain, and the fusion protein was subsequently cloned into the pcDNA3 mammalian expression vector (Invitrogen, San Diego, Calif.). Tet-inducible cell lines expressing the coding region from the ZFP vector were created using the T-REx-293™ cell line (Invitrogen). After 2 weeks of selection in culture medium containing […] Zeocin (Invitrogen), sixty drug-resistant stable clones were isolated and analyzed for ZFP expression as well as CCK2R induction upon addition of doxycycline to the culture medium. The cell line with the most appropriate CCK2R ZFP construct was used in all further assays and was termed the HEKZFP cell line.
HEKZFP cells were grown in DMEM supplemented with L-glutamine (2 mM), penicillin (50 units/mL) and streptomycin (50 μg/mL) and 10% FBS (v/v). HEKZFP cells were treated with […] doxycycline (Sigma-Aldrich, MO; USA) for 2 days to de-repress the tet-regulated expression of the CCK2 receptor selective zinc finger proteins and were harvested using a rubber cell scraper.
Membranes were prepared from the HEKZFP cells after induction. Frozen cell pellets (−40° C.) were thawed in 14 mL of buffer A (10 mM HEPES, 130 mM NaCl, 4.7 mM KCl, 5 mM MgCl, 1 mM EGTA and 15.4 mg/100 mL bacitracin at pH 7.2), adapted from E. A. Harper et al. (Br. J. Pharmacol. (1996) 118(7):1717-1726). The thawed pellets were homogenized using a Polytron PT-10 (7×1 s). The homogenates were centrifuged for 5 min at 1500 rpm (600×g), and the resulting pellets were discarded. The supernatants were re-centrifuged in order to collect the receptor-membrane pellets (25 min 15,000 rpm; 39,000×g), which were re-suspended in buffer A.
All assays were conducted in 96-well plate (GF/B millipore filter plates) using buffer A. For the optimal cell number determination experiments, cells in concentrations ranging from 2.5×10^5 to 12.5×10^5 cells/well were incubated with 20 pM [^125I]-BH-CCK-8S (50 μL 60 pM) solution) in a total volume of 150 μL. Total binding of [^125I]-BH-CCK-8S was determined in the presence of 15 μL of buffer A. Non-specific binding of [^125I]-BH-CCK-8S was determined in the presence of 15 μL of 10 μM YF476, a CCK-2 receptor selective antagonist that is structurally unrelated to the radioligand [^125I]-BH-CCK-8S. The assay preparation was incubated for 1 h at 21±3° C., and then the assay was terminated by rapid filtration of the preparation under reduced pressure. The loaded filters were washed three times using undiluted PBS (100 μL), and then 100 μL of scintillation fluid was added to the filter plate. Bound radioactivity was determined using a Topcount (Packard BioScience, Meriden, Conn.) with a count time of 1 min. From these experiments a cell concentration of 1 pellet in 15 mL of buffer was chosen for use in other assays. To validate the radioligand concentration and incubation time for the assay, saturation and kinetic binding studies were also conducted (see M. F. Morton, The Pharmacological Characterization of Cholecystokinin Receptors in the Human Gastrointestinal Tract. PhD Thesis, University of London, 2000). […] The assay was then terminated according to the procedure outlined above.
The pKi values were determined using the equation of Y.-C. Cheng and W. H. Prusoff (Biochem. Pharmacol., 1973, 22(23):3099-3108):
To circumvent problems associated with computer-assisted data analysis of compounds with low affinity, the data obtained in the current study were weighted according to a method described by Morton. In brief, 100% and 0% specific binding were defined independently using total binding and binding obtained in the presence of a high concentration of the reference antagonist, 2-NAP.

In turn, `O=C(c1ccc(Br)cc1NS(=O)(=O)c1cccc2nsnc12)N1CCCCC1` [Example 5, Benzo[1,2,5]thiadiazole-4-sulfonic acid [5-bromo-2-(piperidine-1-carbonyl)-phenyl]-amide] returned a pK8 value on CCK2 receptor [1] (antagonism of pentagastrin concentration-response curves, 24° C.) of 8.8. Moreover, the “behaviour in the muscle contraction assay” value at CCK2 receptor [1] (pentagastrin concentration-response curves) is “competitive antagonist”. The same compound came in with a pKi at CCK2 receptor [2] of 7.6.

For orientation: pKi means the Ki on a negative log10 scale, so that one unit is a factor of ten. Lower therefore signals a high Ki.

Values taken from patent US7550492B2, “Benzo[1,2,5]thiadiazole compounds” (Janssen Pharmaceutica N.V., priority 2003, dated 2009).
